Data: patent publication US8524916B2, “Dithiinetetra(thio)carboximides” (Bayer CropScience AG, priority 2010, dated 2013)

Key:
Type in all cases: in vivo
[1] = system: Alternaria solani; assay: Alternaria test (tomato)/protective; conditions: tomato young plants, protective spray, application rate 250 ppm, evaluation 3 days after inoculation; 0% = control, 100% = no infection
Description: (§1) Alternaria Test (Tomato)/Protective [table] To produce an appropriate active ingredient formulation, 1 part by weight of active ingredient is mixed with the specified amounts of solvent and emulsifier, and the concentrate is diluted with water to the desired concentration. To test for protective activity, young plants are sprayed with the active ingredient formulation at the stated application rate. After the spray coating has dried on, the plants are inoculated with an aqueous spore suspension of Alternaria solani. The plants are then placed in an incubation cabin at approx. 20° C. and 100% relative air humidity.

[2] = system: Phytophthora infestans; conditions: tomato young plants, protective spray, application rate 250 ppm, evaluation 3 days after inoculation; 0% = control, 100% = no infection
[3] = system: Venturia inaequalis; assay: Venturia test (apple)/protective; conditions: apple young plants, protective spray, application rate 250 ppm, evaluation 10 days after inoculation; 0% = control, 100% = no infection
Description: as §1, with “Venturia” for “Alternaria”, “(Apple)/Protective” for “(Tomato)/Protective”, “conidia” for “spore”, “the apple scab pathogen Venturia inaequalis and” for “Alternaria solani. The plants are”, “remain” for “placed”, “humidity for 1 day. The plants are then placed in a greenhouse at about 21° C. and a relative air humidity of approx. 90%.” for “humidity.”

[4] = system: Plasmopara viticola; assay: Plasmopara test (grapevine)/protective; conditions: grapevine young plants, protective spray, application rate 250 ppm, evaluation 6 days after inoculation; 0% = control, 100% = no infection
Description: as §1, with “Plasmopara” for “Alternaria”, “(Grapevine)/Protective” for “(Tomato)/Protective”, “Plasmopara viticola and” for “Alternaria solani. The plants are”, “remain” for “placed”, “humidity for 1 day. Subsequently, the plants are placed in a greenhouse at approx. 21° C. and approx. 90% air humidity for 4 days. The plants are then moistened and placed in an incubation cabin for 1 day.” for “humidity.”

SMILES | Efficacy (%) [1] [%] | Efficacy (%) [3] [%] | also measured
Cn1c(=O)c2sc3c(=O)n(C)c(=S)c3sc2c1=O [drawing 26] | 95 | – | –
Cn1c(=O)c2sc3c(=O)n(C)c(=S)c3sc2c1=O [drawing 22] | – | – | Efficacy (%) [2]: 72%
Cn1c(=O)c2sc3c(=O)n(C)c(=S)c3sc2c1=O [drawing 24] | – | 99 | –
Cn1c(=O)c2sc3c(=S)n(C)c(=O)c3sc2c1=S [drawing 27] | 76 | – | –
Cn1c(=O)c2sc3c(=O)n(C)c(=S)c3sc2c1=O [drawing 23] | – | – | Efficacy (%) [4]: 83%
Cn1c(=O)c2sc3c(=S)n(C)c(=O)c3sc2c1=S [drawing 25] | – | 71 | –
